Key:
DPP9 [1] = molecular target: T1, DPP9 (Homo sapiens, UniProt Q86TI2); assay: Progress-curve kinetics of covalent DPP9 inhibition (kinact, KI); format: biochemical; parameters: purchased Proteros Biostructures GmbH, Germany; details: dark
Text: As previously shown by us, 1 inhibits DPP8 and DPP9 via a covalent modification of the active site serine.^[ [31] ^] Therefore, we also measured the time dependence of this covalent modification of the target enzyme by recording progress curves for the inhibition of DPP8 and 9 and using them to calculate the corresponding binding affinity (KI), maximum enzyme inhibition rate (kinact) as well as the efficiency of covalent bond formation (kinact/KI) values for 5 after and without green light irradiation ( Figure S1 and Table S1, Supporting Information).
To calculate the reaction rate of covalent bond formation between DPP proteins and the inhibitor, kinact, KI, and kinact/KI were determined as previously described.^[ [49] ^, [50] ^] To this end, a dilution series of 5 was irradiated using a green LED lamp (λ = 520−530 nm; Eurolite, Germany) for 5 min and subsequently mixed with 250 µM GP‐AMC. The mixture was then added to 10 nM enzyme, and the resulting activity was measured for a maximum of 60 min at 30 °C. Fluorescence intensities were plotted against time and data were fitted to the following equation: [drawing 1] using Graph‐Pad Prism v10.4.1. The obtained pseudo first‐order rate constant was used to determine kinact and KI by fitting the plot of kobs against inhibitor concentration to the following equation: [drawing 2] . The efficiency of covalent bond formation (kinact/KI) was calculated by the ratio of kinact/KI. All measurements were performed in triplicate, and error bars represent standard errors of the fit.
Supplementary Figure 1. Kinetic analysis of DPP8 and DPP9 inhibition by compound 5. The pseudo-first order rate constant (kobs) was calculated from an exponential regression of progress curves and plotted against the concentration of compound 5. All measurement were performed in triplicate (n = 3 technical replicates), mean values are shown and error bars indicate the standard error of the mean (SEM). Inhibition assay was performed with DPP8 (A, B) and DPP9 (C, D) under ‘dark’ (A, C) and ‘light’ (B, D) conditions. […]

DPP9 [2] = molecular target: T1, DPP9; assay: In vitro gel-based competitive ABPP in HEK293 cell lysates, 100 kDa band; parameters: endogenous in cells; host or cells: HEK293 (Cytion, Germany, 300192); details: HEK293 lysate, 10 µM competitor, 30 min; for Competition of ≡FP labeling (in words): 2 µM ≡FP
Experimental: Therefore, HEK293 cell lysates were pre‐incubated with 10 µM 5 or DMSO vehicle control for 30 min, followed by a labeling reaction with 2 µM of the serine hydrolase‐specific ABP fluorophosphonate‐alkyne (≡FP) or 10 µM 2 (Figure 2B). […] Of note, this band has been previously assigned as DPP9 (DPP8 would migrate in the same range, but is only expressed at low levels in the used cell line and therefore cannot be visualized by this approach).^[ [36] ^, [37] ^] […] Again, this labeling was observed regardless of prior irradiation. Subsequently, the competitive labeling experiment was conducted by pre‐incubation with compound 5, with or without subsequent irradiation.
Figure 2 Competitive ABPP with photo‐cleavable inhibitor 5 in HEK293 cells. A) Schematic overview of a competitive ABPP experiment. A proteome is pre‐incubated with a competitor, followed by a labeling reaction with an activity‐based probe (ABP). In the case of a photocaged inhibitor, the active compound can be released via irradiation. Target proteins of the competitor cannot be bound by the ABP, resulting in an absence of the respective protein band in‐gel analysis. Created in BioRender. Najdzion, M. (2025) https://BioRender.com/84zn8cb B) Gel‐based competitive ABPP experiment in HEK293 cell lysates with the broadband serine hydrolase ABP ≡FP or the DPP8/9‐directed ABP 2 and the photocaged inhibitor 5, at the indicated concentrations, after or without prior irradiation with green light for 5 min. The corresponding pre‐incubation time for 5 was 30 min. C) Corresponding in situ competitive ABPP experiment in HEK293 cell culture, again with 10 µM 2 for 1 h. Labeling was competed by pre‐incubation with 20 µM 5 for 1 h, followed by an activation of the photocaged inhibitor by irradiation for 5 min with a green LED lamp, if applicable. D) Green light treatment has no cytotoxic effect. HEK293 cells were irradiated with a green LED lamp in the presence of 0.5% DMSO for 5 min (‘light’), and cell viability was measured after 24 h. […] Data was normalized to the non‐irradiated control (‘dark’). E) Green light treatment leads to the release of the active DPP8/9 inhibitor. HEK293 cells were incubated with compound 1 or 5 for 24 h. For both compounds, cell viability was measured under ‘dark’ (not irradiated) and ‘light’ (irradiated for 5 min with a green LED lamp after the addition of the inhibitor) conditions. […] Data was normalized to the non‐irradiated DMSO control.
For in vitro ABPP, cell lysates were generated from HEK293 cells grown on a 10 cm tissue dish. […] The cell lysates were cleared via centrifugation (30 min, 20,817 × g, 4 °C), and protein concentration was determined with a modified Bradford assay using Roti‐Nanoquant (Carl Roth, Germany). […]

T1 sequence (Q86TI2 whole entry): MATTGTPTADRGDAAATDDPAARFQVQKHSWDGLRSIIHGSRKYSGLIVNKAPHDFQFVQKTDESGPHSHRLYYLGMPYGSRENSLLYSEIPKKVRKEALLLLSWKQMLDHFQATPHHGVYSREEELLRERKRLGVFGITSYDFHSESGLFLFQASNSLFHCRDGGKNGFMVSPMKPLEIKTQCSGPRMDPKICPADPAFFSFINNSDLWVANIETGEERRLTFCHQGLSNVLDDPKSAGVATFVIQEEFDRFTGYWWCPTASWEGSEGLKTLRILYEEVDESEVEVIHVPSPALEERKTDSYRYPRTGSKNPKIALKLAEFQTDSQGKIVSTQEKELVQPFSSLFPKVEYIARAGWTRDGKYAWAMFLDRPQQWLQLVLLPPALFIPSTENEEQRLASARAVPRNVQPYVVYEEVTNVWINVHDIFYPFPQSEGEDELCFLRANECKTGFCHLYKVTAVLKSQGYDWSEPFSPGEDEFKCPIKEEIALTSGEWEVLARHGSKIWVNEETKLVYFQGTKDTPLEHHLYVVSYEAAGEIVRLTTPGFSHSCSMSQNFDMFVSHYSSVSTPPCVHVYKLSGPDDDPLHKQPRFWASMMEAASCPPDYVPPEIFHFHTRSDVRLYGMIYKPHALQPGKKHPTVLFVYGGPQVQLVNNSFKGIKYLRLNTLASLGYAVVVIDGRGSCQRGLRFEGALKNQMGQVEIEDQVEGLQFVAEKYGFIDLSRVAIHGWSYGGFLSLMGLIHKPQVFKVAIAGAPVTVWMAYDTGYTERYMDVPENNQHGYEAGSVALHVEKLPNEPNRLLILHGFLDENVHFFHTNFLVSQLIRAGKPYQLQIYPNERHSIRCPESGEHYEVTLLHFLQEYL

CCCCCc1ccc(SCCP(=O)(OCC)N2CCC[C@H](NC(=O)OCC3=C4C(C)=CC(C)=[N+]4[B-](C)(C)n4c(C)cc(C)c43)C2=O)cc1 (stereo partly drawn) [Compound 5]
KI (inactivation) (DPP9 [1]): 32.2 µM
kinact (DPP9 [1]): 0.000464 s⁻¹
kinact/KI (DPP9 [1]): 14 M⁻¹ s⁻¹
Competition of ≡FP labeling (in words) (DPP9 [2]; green light 5 min, 100 kDa band assigned as DPP9): labeling competition of one specific band
Competition of ≡FP labeling (in words) (DPP9 [2]; without irradiation): did not result in any competition
Competition of DPP9 labeling by ABP 2 (in words) (DPP9 [2]; 10 µM 2, green light 5 min): efficient DPP9 labeling competition

— article PMC12498190, “A Photocaged N‐Phosphonopiperidinone as a Selective Photo‐Cleavable DPP8/9 Inhibitor” (Chembiochem, 2025)
